In US20150284335A1, “Benzoimidazoles as prolyl hydroxylase inhibitors” (Janssen Pharmaceutica NV, priority 2008, published 2015):
Marks after values point to notes of the source that are not given here. One block for each compound: values may come before it.

How the values were obtained:
[1] = tested on: Hep-3B cells; assay: Cellular assay: EPO secretion in Hep-3B cells; type: cell-based, human; details: 24 hours, percent of EPO secretion relative to assay control compound
[2] = molecular target: T1, PHD2181-417 (Homo sapiens, UniProt Q9GZT9); assay: PHD enzyme activity assay ([14C]-succinic acid production); type: biochemical; details: inhibition of PHD2181-417 activity; HIF-1α peptide 10 μM, [5-14C]-2-oxoglutaric acid, 10 minutes; read-out: Enzyme pIC50 (converted);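 note: enzyme expressed in E. coli BL21, assayed in Tris-HCl pH 7.5 with catalase, DTT and ascorbate, [14C]-succinic acid beta-counted after DNP precipitation of residual 2-oxoglutarate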
T1 construct: histidine tag (N, cleaved yes); Smt3 (SUMO) tag (N, cleaved yes); made in house; host or cells: E. coli BL21 (pBAD vector)
T1 sequence (Q9GZT9 181-417): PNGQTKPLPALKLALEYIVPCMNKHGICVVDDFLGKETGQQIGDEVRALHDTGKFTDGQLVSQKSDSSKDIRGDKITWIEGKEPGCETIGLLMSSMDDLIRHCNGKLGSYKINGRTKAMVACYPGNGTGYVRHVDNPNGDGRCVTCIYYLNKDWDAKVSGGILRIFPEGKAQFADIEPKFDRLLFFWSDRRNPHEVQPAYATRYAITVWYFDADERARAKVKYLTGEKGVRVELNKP

[3] = final compound concentration of 10 μM
[4] = final compound concentration 100 μM

SMILES: CC(NC(=O)c1nc2ccccc2[nH]1)C(=O)O (stereo in doubt) [Example 50, (R)-2-[(1H-Benzoimidazole-2-carbonyl)-amino]-propionic acid]
- Cellular % EPO Stimulation [1, 3]: 9.50* %
- IC50 [2]: > 100000 nM

SMILES: O=C(NC(CO)C(=O)O)c1nc2ccccc2[nH]1 (stereo in doubt) [Example 51, (R)-2-[(1H-Benzoimidazole-2-carbonyl)-amino]-3-hydroxy-propionic acid]
- Cellular % EPO Stimulation [1, 3]: 0.73* %
- IC50 [2]: 20000 nM

SMILES: O=C(O)CNC(=O)c1nc2ccccc2[nH]1 [Example 1, [(1H-Benzoimidazole-2-carbonyl)-amino]-acetic acid]
- Cellular % EPO Stimulation [1, 4]: 23.9%

SMILES: C[C@H](NC(=O)c1nc2ccccc2[nH]1)C(=O)O [Example 2, (S)-2-[(1H-Benzoimidazole-2-carbonyl)-amino]-propionic acid]
- Cellular % EPO Stimulation [1, 4]: 66.03%
- IC50 [2]: 39800 nM

SMILES: C[C@H](NC(=O)c1nc2cc(Cl)c(Cl)cc2[nH]1)C(=O)O [Example 4, (S)-2-[(5,6-Dichloro-1H-benzoimidazole-2-carbonyl)-amino]-propionic acid]
- Cellular % EPO Stimulation [1, 4]: 7.70%
- IC50 [2]: 25100 nM

SMILES: O=C(O)CNC(=O)c1nc2ccc([N+](=O)[O-])cc2[nH]1 [Example 5, [(6-Nitro-1H-benzoimidazole-2-carbonyl)-amino]-acetic acid]
- Cellular % EPO Stimulation [1, 4]: 0.00%
- IC50 [2]: 5010 nM

SMILES: O=C(O)CNC(=O)c1nc2cc(C(F)(F)F)cc(C(F)(F)F)c2[nH]1 [Example 6, [(5,7-Bis-trifluoromethyl-1H-benzoimidazole-2-carbonyl)-amino]-acetic acid]
- Cellular % EPO Stimulation [1, 4]: 4.20%

SMILES: C[C@H](NC(=O)c1nc2cc(C(F)(F)F)cc(C(F)(F)F)c2[nH]1)C(=O)O [Example 7, (S)-2-[(5,7-Bis-trifluoromethyl-1H-benzoimidazole-2-carbonyl)-amino]-propionic acid]
- Cellular % EPO Stimulation [1, 4]: 1.60%

SMILES: O=C(O)CNC(=O)c1nc2cc(I)ccc2[nH]1 [Example 8, [(5-Iodo-1H-benzoimidazole-2-carbonyl)-amino]-acetic acid]
- Cellular % EPO Stimulation [1, 4]: 3.80%
- IC50 [2]: 39800 nM

SMILES: O=C(O)CNC(=O)c1nc2ccc(Br)cc2[nH]1 [Example 9, [(6-Bromo-1H-benzoimidazole-2-carbonyl)-amino]-acetic acid]
- Cellular % EPO Stimulation [1, 4]: 9.80%

SMILES: C[C@H](NC(=O)c1nc2ccc(F)cc2[nH]1)C(=O)O [Example 10, (S)-2-[(6-Fluoro-1H-benzoimidazole-2-carbonyl)-amino]-propionic acid]
- Cellular % EPO Stimulation [1, 4]: 14.74%
- IC50 [2]: > 100000 nM

SMILES: C[C@@H](NC(=O)c1nc2ccc(F)cc2[nH]1)C(=O)O [Example 11, (R)-2-[(6-Fluoro-1H-benzoimidazole-2-carbonyl)-amino]-propionic acid]
- Cellular % EPO Stimulation [1, 4]: 23.93%
- IC50 [2]: 79400 nM

SMILES: COc1ccc2nc(C(=O)NCC(=O)O)[nH]c2c1 [Example 12, [(6-Methoxy-1H-benzoimidazole-2-carbonyl)-amino]-acetic acid]
- Cellular % EPO Stimulation [1, 4]: 0.50%

SMILES: O=C(O)CNC(=O)c1nc2cc(-c3cccc(OCc4cccc(Cl)c4)c3)ccc2[nH]1 [Example 13, ({5-[3-(3-Chloro-benzyloxy)-phenyl]-1H-benzoimidazole-2-carbonyl}-amino)-acetic acid]
- Cellular % EPO Stimulation [1, 4]: 1.20%
- IC50 [2]: 1580 nM

SMILES: O=C(O)CNC(=O)c1nc2cc(-c3cccc(OCc4ccccc4Cl)c3)ccc2[nH]1 [Example 14, ({5-[3-(2-Chloro-benzyloxy)-phenyl]-1H-benzoimidazole-2-carbonyl}-amino)-acetic acid]
- Cellular % EPO Stimulation [1, 4]: −3.80%
- IC50 [2]: 2510 nM

SMILES: O=C(O)CNC(=O)c1nc2cc(-c3cccc(OCc4ccc(Cl)cc4)c3)ccc2[nH]1 [Example 15, ({5-[3-(4-Chloro-benzyloxy)-phenyl]-1H-benzoimidazole-2-carbonyl}-amino)-acetic acid]
- Cellular % EPO Stimulation [1, 4]: −3.90%
- IC50 [2]: 2510 nM

SMILES: O=C(O)CNC(=O)c1nc2cc(-c3cccc(OCc4cccc(F)c4)c3)ccc2[nH]1 [Example 16, ({5-[3-(3-Fluoro-benzyloxy)-phenyl]-1H-benzoimidazole-2-carbonyl}-amino)-acetic acid]
- Cellular % EPO Stimulation [1, 4]: 2.10%
- IC50 [2]: 2510 nM

SMILES: O=C(O)CNC(=O)c1nc2cc(-c3cccc(OCc4ccccc4F)c3)ccc2[nH]1 [Example 17, ({5-[3-(2-Fluoro-benzyloxy)-phenyl]-1H-benzoimidazole-2-carbonyl}-amino)-acetic acid]
- Cellular % EPO Stimulation [1, 4]: 1.50%
- IC50 [2]: 5010 nM

SMILES: O=C(O)CNC(=O)c1nc2cc(-c3ccc(Oc4ccccc4)cc3)ccc2[nH]1 [Example 18, {[5-(4-Phenoxy-phenyl)-1H-benzoimidazole-2-carbonyl]-amino}-acetic acid]
- Cellular % EPO Stimulation [1, 4]: 2.00%
- IC50 [2]: 7940 nM

SMILES: O=C(O)CNC(=O)c1nc2cc(-c3cc(F)cc(OCc4ccccc4)c3)ccc2[nH]1 [Example 19, {[5-(3-Benzyloxy-5-fluoro-phenyl)-1H-benzoimidazole-2-carbonyl]-amino}-acetic acid]
- Cellular % EPO Stimulation [1, 4]: −3.80%
- IC50 [2]: 6310 nM

SMILES: O=C(O)CNC(=O)c1nc2cc(-c3cnc4ccccc4c3)ccc2[nH]1 [Example 20, [(5-Quinolin-3-yl-1H-benzoimidazole-2-carbonyl)-amino]-acetic acid]
- Cellular % EPO Stimulation [1, 4]: 8.26%
- IC50 [2]: 1580 nM

SMILES: O=C(O)c1cnn(-c2nc3cc(-c4ccc(OCc5ccccc5)cc4)ccc3[nH]2)c1 [Example 47, 1-[5-(4-Benzyloxy-phenyl)-1H-benzoimidazol-2-yl]-1H-pyrazole-4-carboxylic acid]
- IC50 [2]: 200 nM

SMILES: C[C@@H](NC(=O)c1nc2cc(C(F)(F)F)cc(C(F)(F)F)c2[nH]1)C(=O)O [Example 52, (R)-2-[(5,7-Bis-trifluoromethyl-1H-benzoimidazole-2-carbonyl)-amino]-propionic acid]
- Cellular % EPO Stimulation [1, 4]: 17.80%

SMILES: O=C(O)c1cn(-c2nc3cc(Br)ccc3[nH]2)nc1C(F)(F)F [Example 55, 1-(5-Bromo-1H-benzoimidazol-2-yl)-3-trifluoromethyl-1H-pyrazole-4-carboxylic acid]
- IC50 [2]: > 100000 nM

SMILES: Cc1nn(-c2nc3cc(Br)ccc3[nH]2)c(C)c1C(=O)O [Example 57, 1-(5-Bromo-1H-benzoimidazol-2-yl)-3,5-dimethyl-1H-pyrazole-4-carboxylic acid]
- IC50 [2]: 63100 nM

SMILES: Cc1nn(-c2nc3cc(Cl)c(Cl)cc3[nH]2)c(C)c1C(=O)O [Example 58, 1-(5,6-Dichloro-1H-benzoimidazol-2-yl)-3,5-dimethyl-1H-pyrazole-4-carboxylic acid]
- IC50 [2]: > 10000 nM

Continued, values first:

- IC50 [2]: 794 nM
SMILES: Cc1cc2nc(-n3cc(C(=O)O)cn3)[nH]c2cc1C [Example 36, 1-(5,6-Dimethyl-1H-benzoimidazol-2-yl)-1H-pyrazole-4-carboxylic acid]

- IC50 [2]: 158 nM
SMILES: O=C(O)c1cnn(-c2nc3c(Cl)cc(C(F)(F)F)cc3[nH]2)c1 [Example 39, 1-(4-Chloro-6-trifluoromethyl-1H-benzoimidazol-2-yl)-1H-pyrazole-4-carboxylic acid]

- IC50 [2]: 398 nM
SMILES: COc1cc2nc(-n3cc(C(=O)O)cn3)[nH]c2cc1OC [Example 40, 1-(5,6-Dimethoxy-1H-benzoimidazol-2-yl)-1H-pyrazole-4-carboxylic acid]

- IC50 [2]: 7940 nM
SMILES: Cc1ccc2[nH]c(-n3cc(C(=O)O)cn3)nc2c1C [Example 41, 1-(4,5-Dimethyl-1H-benzoimidazol-2-yl)-1H-pyrazole-4-carboxylic acid]

- IC50 [2]: 31.6 nM
SMILES: O=C(O)c1cnn(-c2nc3cc(-c4cccc(OCc5cccc(Cl)c5)c4)ccc3[nH]2)c1 [Example 43, 1-{5-[3-(3-Chloro-benzyloxy)-phenyl]-1H-benzoimidazol-2-yl}-1H-pyrazole-4-carboxylic acid]

- IC50 [2]: 25.1 nM
SMILES: O=C(O)c1cnn(-c2nc3cc(-c4cccc(OCc5ccccc5Cl)c4)ccc3[nH]2)c1 [Example 44, 1-{5-[3-(2-Chloro-benzyloxy)-phenyl]-1H-benzoimidazol-2-yl}-1H-pyrazole-4-carboxylic acid]

- IC50 [2]: 50.1 nM
SMILES: O=C(O)c1cnn(-c2nc3cc(-c4cccc(OCc5ccccc5)c4)ccc3[nH]2)c1 [Example 46, 1-[5-(3-Benzyloxy-phenyl)-1H-benzoimidazol-2-yl]-1H-pyrazole-4-carboxylic acid]

- IC50 [2]: 79.4 nM
SMILES: O=C(O)c1cnn(-c2nc3cc(-c4cccc(C(F)(F)F)c4)ccc3[nH]2)c1 [Example 48, 1-[5-(3-Trifluoromethyl-phenyl)-1H-benzoimidazol-2-yl]-1H-pyrazole-4-carboxylic acid]

- IC50 [2]: 79.4 nM
SMILES: O=C(O)c1cnn(-c2nc3cc(-c4ccc(Cl)c(Cl)c4)ccc3[nH]2)c1 [Example 49, 1-[5-(3,4-Dichloro-phenyl)-1H-benzoimidazol-2-yl]-1H-pyrazole-4-carboxylic acid]

- IC50 [2]: > 10000 nM
SMILES: O=C(O)c1cn(-c2nc3cc(Cl)c(Cl)cc3[nH]2)nc1C(F)(F)F [Example 56, 1-(5,6-dichloro-1H-benzoimidazol-2-yl)-3-trifluoromethyl-1H-pyrazole-4-carboxylic acid]

- IC50 [2]: 251 nM
SMILES: O=C(O)c1cnn(-c2nc3cc(-c4ccc(O)cc4)ccc3[nH]2)c1 [Example 59, 1-[5-(4-Hydroxy-phenyl)-1H-benzoimidazol-2-yl]-1H-pyrazole-4-carboxylic acid]

- IC50 [2]: 316 nM
SMILES: O=C(O)c1cnn(-c2nc3cc(-c4cccc(O)c4)ccc3[nH]2)c1 [Example 60, 1-[5-(3-Hydroxy-phenyl)-1H-benzoimidazol-2-yl]-1H-pyrazole-4-carboxylic acid]

- IC50 [2]: 501 nM
SMILES: O=C(O)c1cnn(-c2nc3cc(Cl)ccc3[nH]2)c1 [Example 61, 1-(5-Chloro-1H-benzoimidazol-2-yl)-1H-pyrazole-4-carboxylic acid]

- IC50 [2]: 398 nM
SMILES: Cc1c(Br)cc2nc(-n3cc(C(=O)O)cn3)[nH]c2c1C [Example 62, 1-(5-Bromo-6,7-dimethyl-1H-benzoimidazol-2-yl)-1H-pyrazole-4-carboxylic acid]
